From patent US9062078B2, “Substituted 7-azabicyles and their use as orexin receptor modulators” (priority 2013, dated 2015) come the findings set out here.

Broadly, the pKi is the Ki on a negative log10 scale, so that one unit is a factor of ten.

pKi: −log10 of the molar value. Where two headings read alike, the source gives them in different places.

The target of one experiment is rat orexin 1 receptor (Rattus norvegicus, UniProt P56718). As to the kind of experiment: Rat orexin 1 receptor radioligand binding (competitive, [3H]-SB674042, HEK293 cell preparations). The settings on record: rOX1 Ki (nm).
A further experiment concerns the target human orexin 1 receptor (Homo sapiens (Human), UniProt O43613). As to the kind of experiment: Human orexin 1 receptor radioligand binding (competitive, [3H]-SB674042, CHO cell preparations).
The next experiment deals with human orexin 2 receptor (Homo sapiens (Human), UniProt O43614). As to the kind of experiment: Human orexin 2 receptor radioligand binding (competitive, [3H]-EMPA, HEK293 cell preparations).
[1] abbreviates: human orexin 1 receptor, [3H]-SB674042 competition binding, read-out: hOX1 Ki (nm).
The mark [2] stands for this setting: human orexin 2 receptor, [3H]-EMPA competition binding, read-out: hOX2 Ki (nm).

Sequence of human orexin 1 receptor (O43613 whole entry): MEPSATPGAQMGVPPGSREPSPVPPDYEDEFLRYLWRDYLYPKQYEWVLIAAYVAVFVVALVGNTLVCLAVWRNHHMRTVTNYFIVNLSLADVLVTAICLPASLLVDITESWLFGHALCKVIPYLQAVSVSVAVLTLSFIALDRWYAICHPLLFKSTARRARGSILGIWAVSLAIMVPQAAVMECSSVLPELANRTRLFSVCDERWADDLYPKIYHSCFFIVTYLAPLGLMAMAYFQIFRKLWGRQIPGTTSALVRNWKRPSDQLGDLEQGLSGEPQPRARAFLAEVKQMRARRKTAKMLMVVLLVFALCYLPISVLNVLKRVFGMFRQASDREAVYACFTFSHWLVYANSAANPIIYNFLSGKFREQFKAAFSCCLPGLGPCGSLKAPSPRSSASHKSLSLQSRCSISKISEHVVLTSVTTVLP
Sequence of human orexin 2 receptor (O43614 whole entry): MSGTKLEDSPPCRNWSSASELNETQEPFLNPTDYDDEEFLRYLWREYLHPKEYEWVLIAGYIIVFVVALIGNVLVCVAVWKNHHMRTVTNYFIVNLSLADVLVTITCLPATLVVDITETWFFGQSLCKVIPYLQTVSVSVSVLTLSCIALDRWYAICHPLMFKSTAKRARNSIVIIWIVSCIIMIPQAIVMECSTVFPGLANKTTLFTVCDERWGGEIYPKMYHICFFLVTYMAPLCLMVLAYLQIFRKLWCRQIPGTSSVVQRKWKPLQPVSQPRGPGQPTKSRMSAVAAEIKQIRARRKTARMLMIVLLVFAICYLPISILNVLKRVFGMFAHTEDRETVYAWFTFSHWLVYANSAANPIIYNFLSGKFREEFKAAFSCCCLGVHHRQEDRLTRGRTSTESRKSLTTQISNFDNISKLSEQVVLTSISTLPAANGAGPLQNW

Consider `CCOc1ncc2ccccc2c1C(=O)N1C2CCC1C(COc1ccccn1)C2` (racemic) [Example 83, (±)-(3-ethoxyisoquinolin-4-yl)(2-((pyridin-2-yloxy)methyl)-7-azabicyclo[2.2.1]heptan-7-yl)methanone], for which the negative-log Ki (pKi) on rat orexin 1 receptor is 7.77; at human orexin 1 receptor (hOX1 Ki (nm)) it was 7.92.
Turning to `Cc1cc(C)nc(OCC2CC3CCC2N3C(=O)c2cccc(F)c2-n2nccn2)n1` (racemic) [Example 154, (±)-(2-(((4,6-dimethylpyrimidin-2-yl)oxy)methyl)-7-azabicyclo[2.2.1]heptan-7-yl)(3-fluoro-2-(2H-1,2,3-triazol-2-yl)phenyl)methanone], the negative-log Ki (pKi) at human orexin 1 receptor (setting [1]) is 6.16; at human orexin 2 receptor (hOX2 Ki (nm)) it was 6.52.
For the compound `CCOc1ccccc1C(=O)N1C2CCC1C(COc1ccc(F)cn1)C2` (racemic) [Example 165, (±)-(2-ethoxyphenyl)(2-(((5-fluoropyridin-2-yl)oxy)methyl)-7-azabicyclo[2.2.1]heptan-7-yl)methanone], the pKi at human orexin 1 receptor (hOX1 Ki (nm)) is 6.39; at human orexin 2 receptor (setting [2]), 6.26.
In the case of `O=C(c1cc(F)ccc1-n1nccn1)N1C2CCC1C(COc1cnc3ccccc3n1)C2` (racemic) [Example 166, (±)-(5-fluoro-2-(2H-1,2,3-triazol-2-yl)phenyl)(2-((quinoxalin-2-yloxy)methyl)-7-azabicyclo[2.2.1]heptan-7-yl)methanone], the pKi at human orexin 1 receptor (setting [1]) is 6.97; at human orexin 2 receptor (setting [2]), 5.94.
Consider `Cc1ccc(OCC2CC3CCC2N3C(=O)c2cc(C)ccc2-n2nccn2)nc1` (racemic) [Example 167, (±)-5-methyl-2-(2H-1,2,3-triazol-2-yl)phenyl)(2-(((5-methylpyridin-2-yl)oxy)methyl)-7-azabicyclo[2.2.1]heptan-7-yl)methanone], for which the pKi is 8.05 on human orexin 1 receptor (setting [1]) and 7.85 on human orexin 2 receptor (hOX2 Ki (nm)).
With `Cc1ccc(C(=O)N2C3CCC2C(COc2cnc4ccccc4n2)C3)c(-n2nccn2)n1` (racemic) [Example 168, (±)-(6-methyl-2-(2H-1,2,3-triazol-2-yl)pyridin-3-yl)(2-((quinoxalin-2-yloxy)methyl)-7-azabicyclo[2.2.1]heptan-7-yl)methanone], the negative-log Ki (pKi) at human orexin 1 receptor (setting [1]) is 5.64; at human orexin 2 receptor (hOX2 Ki (nm)), 5.14.
`O=C(c1cc(F)ccc1-n1nccn1)N1C2CCC1C(CNc1ccccn1)C2` (racemic) [Example 169, (±)-(5-fluoro-2-(2H-1,2,3-triazol-2-yl)phenyl)(2-((pyridin-2-ylamino)methyl)-7-azabicyclo[2.2.1]heptan-7-yl)methanone]: the negative-log Ki (pKi) at human orexin 1 receptor (setting [1]) was 5.05; on human orexin 2 receptor (setting [2]), 5.60.
Turning to `Cc1cc(C)nc(NCC2CC3CCC2N3C(=O)c2cc(F)ccc2-n2nccn2)n1` (racemic) [Example 170, (±)-(2-(((4,6-dimethylpyrimidin-2-yl)amino)methyl)-7-azabicyclo[2.2.1]heptan-7-yl)(5-fluoro-2-(2H-1,2,3-triazol-2-yl)phenyl)methanone], the pKi on human orexin 1 receptor (setting [1]) is 5.71; on human orexin 2 receptor (hOX2 Ki (nm)), 6.29.
As to `Cc1ccc(-n2nccn2)c(C(=O)N2C3CCC2C(COc2cc(C)nc(C(F)(F)F)n2)C3)c1` (racemic) [Example 180, (±)-(5-methyl-2-(2H-1,2,3-triazol-2-yl)phenyl)(2-(((6-methyl-2-(trifluoromethyl)pyrimidin-4-yl)oxy)methyl)-7-azabicyclo[2.2.1]heptan-7-yl)methanone], the results for the negative-log Ki (pKi) at human orexin 1 receptor (hOX1 Ki (nm)) and at human orexin 2 receptor (setting [2]) were 7.48 and 7.49, respectively.
In the case of `O=C(c1ccccc1-n1nccn1)N1C2CCC1C(Nc1cnc(C(F)(F)F)cn1)C2` (racemic) [Example 182, (±)-((2-(2H-1,2,3-triazol-2-yl)phenyl)(2-((5-(trifluoromethyl)pyrazin-2-yl)amino)-7-azabicyclo[2.2.1]heptan-7-yl)methanone], the negative logarithm of the Ki (pKi) on human orexin 1 receptor (hOX1 Ki (nm)) is 7.42; at human orexin 2 receptor (hOX2 Ki (nm)), 5.96.
In the same order, the values of `Cc1cc(C)nc(NC2CC3CCC2N3C(=O)c2cc(F)ccc2-n2nccn2)n1` (racemic) [Example 197, (±)-(2-((4,6-dimethylpyrimidin-2-yl)amino)-7-azabicyclo[2.2.1]heptan-7-yl)(5-fluoro-2-(2H-1,2,3-triazol-2-yl)phenyl)methanone] are 5.05 and 6.06.
With `Cc1cc(C)nc(NC2CC3CCC2N3C(=O)c2c(F)cccc2-n2nccn2)n1` (racemic) [Example 198, (±)-(2-((4,6-dimethylpyrimidin-2-yl)amino)-7-azabicyclo[2.2.1]heptan-7-yl)(2-fluoro-6-(2H-1,2,3-triazol-2-yl)phenyl)methanone], the results for the negative logarithm of the Ki (pKi) at human orexin 1 receptor (hOX1 Ki (nm)) and at human orexin 2 receptor (setting [2]) were 5.85 and 6.15, respectively.
`Cc1cc(C)nc(NC2CC3CCC2N3C(=O)c2ccc(F)cc2-n2nccn2)n1` (racemic) [Example 199, (±)-(2-((4,6-dimethylpyrimidin-2-yl)amino)-7-azabicyclo[2.2.1]heptan-7-yl)(4-fluoro-2-(2H-1,2,3-triazol-2-yl)phenyl)methanone]: the pKi on human orexin 1 receptor (setting [1]) was 5.79; at human orexin 2 receptor (setting [2]) it was 6.26.
`O=C(c1ccccc1-c1cccs1)N1[C@@H]2CC[C@H]1[C@H](COc1ccc(F)cn1)C2` (single isomer, unassigned) [Example 12A, ((1S*,2R*,4R*)-2-(((5-fluoropyridin-2-yl)oxy)methyl)-7-azabicyclo[2.2.1]heptan-7-yl)(2-(thiophen-2-yl)phenyl)methanone]: the pKi at human orexin 1 receptor (hOX1 Ki (nm)) is 6.75; on human orexin 2 receptor (hOX2 Ki (nm)), 6.47.
On to `O=C(c1ccccc1-c1cccs1)N1[C@H]2CC[C@@H]1[C@@H](COc1ccc(F)cn1)C2` (single isomer, unassigned) [Example 12B, ((1R*,2S*,4S*)-2-(((5-fluoropyridin-2-yl)oxy)methyl)-7-azabicyclo[2.2.1]heptan-7-yl)(2-(thiophen-2-yl)phenyl)methanone], for which the negative-log Ki (pKi) on human orexin 1 receptor (hOX1 Ki (nm)) is 8.52; at human orexin 2 receptor (hOX2 Ki (nm)), 8.30.
Turning to `O=C(c1ccccc1-n1nccn1)N1C2CCC1C(Nc1cnc(C(F)(F)F)cn1)C2` (single isomer, unassigned) [Example 183b], the pKi was 7.55 at human orexin 1 receptor (hOX1 Ki (nm)) and 6.15 on human orexin 2 receptor (hOX2 Ki (nm)).
With `O=C(c1ccccc1-n1nccn1)N1[C@@H]2CC[C@H]1[C@H](Nc1cnc(C(F)(F)F)cn1)C2` [Example 181, (2-(2H-1,2,3-triazol-2-yl)phenyl)((1S,2R,4R)-2-((5-(trifluoromethyl)pyrazin-2-yl)amino)-7-azabicyclo[2.2.1]heptan-7-yl)methanone], the negative-log Ki (pKi) at human orexin 1 receptor (hOX1 Ki (nm)) is 7.55; at human orexin 2 receptor (hOX2 Ki (nm)), 6.15.
Take `Cc1noc(-c2c(F)cccc2C(=O)N2[C@@H]3CC[C@H]2[C@H](Nc2cnc(C(F)(F)F)cn2)C3)n1` [Example 254, (3-fluoro-2-(3-methyl-1,2,4-oxadiazol-5-yl)phenyl)((1S,2R,4R)-2-((5-(trifluoromethyl)pyrazin-2-yl)amino)-7-azabicyclo[2.2.1]heptan-7-yl)methanone]: the pKi is 7.70 on human orexin 1 receptor (read-out: hOX1 Ki (nm)) and 6.42 on human orexin 2 receptor (setting [2]).
Consider `O=C(c1ccc(F)cc1-n1nccn1)N1[C@@H]2CC[C@H]1[C@H](Nc1cnc(C(F)(F)F)cn1)C2` [Example 257, (4-fluoro-2-(2H-1,2,3-triazol-2-yl)phenyl)((1S,2R,4R)-2-((5-(trifluoromethyl)pyrazin-2-yl)amino)-7-azabicyclo[2.2.1]heptan-7-yl)methanone], for which the pKi on human orexin 1 receptor (setting [1]) was 6.99; on human orexin 2 receptor (setting [2]), 5.49.
